Measurements: US12600716B2 (Gannex Pharma Co., Ltd., priority 2020, dated 2026)
pEC50: −log10 of the molar value.

Assays:
hFXR-LBD-GAL4 = molecular target: T1, hFXR-LBD-GAL4 (Homo sapiens, UniProt Q96RI1); assay: FXR agonist transactivation ability: luciferase reporter gene in HEK293T; type: cell-based; settings: read-out: Cell activity
T1 construct: GAL4 (fusion partner); host or cells: HEK293T
T1 sequence (Q96RI1 262-486 limits assumed): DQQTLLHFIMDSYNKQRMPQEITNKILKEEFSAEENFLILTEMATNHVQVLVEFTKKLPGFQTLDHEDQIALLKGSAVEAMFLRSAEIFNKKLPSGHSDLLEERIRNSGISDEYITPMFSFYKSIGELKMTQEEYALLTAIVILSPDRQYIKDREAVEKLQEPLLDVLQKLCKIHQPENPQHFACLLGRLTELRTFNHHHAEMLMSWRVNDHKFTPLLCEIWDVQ
Description: FXR Agonist Transactivation Ability
Evaluation of the ability of the compound of the present invention to promote FXR transactivation was conducted by using luciferase reporter gene expression technology.
• 1. Cell line: HEK293T (Invitrogen) • 2. Expression plasmid: pBIND-hFXR-LBD-GAL4 (Promega), pGL4.35-luciferase (Promega) • 3. Cell culture medium: 10% serum and penicillin/streptomycin double antibody in DMEM medium • 4. Detection reagent: Steady-Glo fluorescence detection system (Promega). • 5. Transfection reagent: TransIT-293 Transfection Reagent (MIRUS BIO)
• 1. The compound was prepared into a 10 mM DMSO stock solution and stored in a −20° C. refrigerator for a long time. • 2. Resuscitation HEK293T cells were seeded in 10 cm culture dishes at a concentration of 5.5×10^6 and incubated for 16 hours at 37° C. in a 5% CO2 incubator. • 3. Return the transfection reagent to room temperature before transfection. The Trans-IT solution was added dropwise to Opti-MEM, and mixed by inversion for 5 minutes; the expression plasmid was added, mixed by inversion, and incubated at room temperature for 20 minutes. • 4. Add the transfection mixture from Step 3 to the prepared 10 cm dish in Step 2 and incubate for 5-6 hours in a 5% CO2 incubator. • 5. Dilute the compound 3 folds to 10 concentration points using DMSO; add 25 nl of compound per well in a 384-well plate using an Echo 550 sonic pipette; add HEK293T cells to the 384-well plate at a concentration of 15,000 cells/well; 37° C. incubate for 16-20 hours in a 5% CO2 incubator. • 6. Add 25 μl of Steady-Glo Fluorescent Reagent to each well and read the fluorescence on an Envision 2104 plate reader. • 7. Calculate the EC50 value of the activation of the compound.

human FXR protein = molecular target: T2, human FXR protein (Homo sapiens, UniProt Q96RI1); assay: FXR agonist binding ability: time-resolved fluorescence (LanthaScreen) FXR/coactivator assay; type: biochemical; settings: GST-labeled human FXR, fluorescein-labeled coactivator, TR-FRET
T2 construct: purchased Invitrogen
Description: FXR Agonist Binding Ability Evaluation of the activation effect of the compound of the present invention with regard to the binding of FXR to its co-stimulatory factor SRC-1 was conducted by using time-resolved analytical techniques. Protein: glutathione-S-transferase (GST)-labeled human FXR protein (Invitrogen) • 2. Coactivator: Fluorescein-labeled steroid receptor coactivator (SRC2-2) (Invitrogen) • 3. Detection reagent: LanthaScreen Time-Resolved Fluorescence Analysis Kit (Invitrogen) • 1. The compound was prepared into a 10 mM DMSO stock solution and stored in a −20° C. refrigerator for a long time. • 2. The compound was diluted to 1 mM before the experiment, and then the compound was diluted 3-fold to 10 concentration points using DMSO. Then use buffer G (Invitrogen, PV4553) to dilute these 10 concentration points by 50 times to become a working fluid. Add 10 μl of each working solution to each well of a 384-well plate. • 3. Prepare a human FXR protein solution (final concentration 20 nM) in chilled buffer G and add 5 μl of human FXR protein solution to each well of a 384-well plate. • 4. Prepare a mix of buffer G containing 2 μM fluorescein-labeled steroid receptor coactivator and 20 nM GST antibody. • 5. Add 5 μl of the mixture prepared in Step 4 to a 384-well plate. • 6. Centrifuge the 384-well plate at 1000 g for 1 minute. • 7. Incubate for 1 hour at room temperature in the dark. • 8. Read the 384-well plate at 520 nm and 495 nm on an Envision 2104 plate reader. • 9. Calculate the EC50 value of the activation effect of the compound.

pEC50 (hFXR-LBD-GAL4)	pEC50 (human FXR protein)	Structure (SMILES)
< 6.00	6.30 to 7.30	O=C(O)c1ccc(Oc2ccc3cc(OCc4c(-c5c(Cl)cccc5Cl)noc4C4CC4)ccc3c2)nn1 [Compound 2, 6-((6-((5-cyclopropyl-3-(2,6-dichlorophenyl)isoxazol-4-yl)methoxy)naphthalen-2-yl)oxy)pyridazine-3-carboxylic acid]
< 6.00	< 6.30	O=C(O)c1cnc(Oc2ccc3cc(OCc4c(-c5c(Cl)cccc5Cl)noc4C4CC4)ccc3c2)c(Cl)c1 [Compound 3, 5-chloro-6-((6-((5-cyclopropyl-3-(2,6-dichlorophenyl)isoxazol-4-yl)methoxy)naphthalen-2-yl)oxy)nicotinic acid]
< 6.00	6.30 to 7.30	O=C(O)c1cnc(Oc2ccc3cc(OCc4c(-c5c(Cl)cccc5Cl)noc4C4CC4)ccc3c2)s1 [Compound 4, 2-((6-((5-cyclopropyl-3-(2,6-dichlorophenyl)isoxazol-4-yl)methoxy)naphthalen-2-yl)oxy)thiazole-5-carboxylic acid]
< 6.00	< 6.30	Cc1cc(C(=O)O)cnc1Oc1ccc2cc(OCc3c(-c4c(Cl)cccc4Cl)noc3C3CC3)ccc2c1 [Compound 5, 6-((6-((5-cyclopropyl-3-(2,6-dichlorophenyl)isoxazol-4-yl)methoxy)naphthalen-2-yl)oxy)-5-methylnicotinic acid]
< 6.00	6.30 to 7.30	O=C(NS(=O)(=O)C1CC1)c1ccc(Oc2ccc3cc(OCc4c(-c5c(Cl)cccc5Cl)noc4C4CC4)ccc3c2)nc1 [Compound 6, 6((6((5-cyclopropyl-3-(2,6-dichlorophenyl)isoxazol-4-yl)methoxy)naphthalen-2-yl)oxy)-N-(cyclopropylsulfonyl)nicotinamide]
< 6.00	< 6.30	O=C(O)c1cnc(Oc2ccc3cc(OCc4c(-c5c(Cl)cccc5Cl)noc4C4CC4)ccc3c2)cn1 [Compound 7, 5-((6-((5-cyclopropyl-3-(2,6-dichlorophenyl)isoxazol-4-yl)methoxy)naphthalen-2-yl)oxy)pyrazine-2-carboxylic acid]
6.00 to 6.30	6.30 to 7.30	O=C(O)c1ccc(Oc2ccc3cc(OCc4c(-c5c(Cl)cccc5Cl)noc4C4CC4)ccc3c2)nc1Cl [Compound 8, 2-chloro-6-((6-((5-cyclopropyl-3-(2,6-dichlorophenyl)isoxazol-4-yl)methoxy)naphthalen-2-yl)oxy)nicotinic acid]
< 6.00	6.30 to 7.30	O=C(O)c1ccc(Oc2ccc3cc(OCc4c(-c5c(Cl)cccc5Cl)noc4C4CC4)ccc3c2)cn1 [Compound 9, 5-((6-((5-cyclopropyl-3-(2,6-dichlorophenyl)isoxazol-4-yl)methoxy)naphthalen-2-yl)oxy)picolinic acid]
< 6.00	> 7.30	O=C(O)c1ccnc(Oc2ccc3cc(OCc4c(-c5c(Cl)cccc5Cl)noc4C4CC4)ccc3c2)c1 [Compound 12, 2-((6-((5-cyclopropyl-3-(2,6-dichlorophenyl)isoxazol-4-yl)methoxy)naphthalen-2-yl)oxy)isonicotinic acid]
< 6.00	6.30 to 7.30	O=C(O)c1ncccc1Oc1ccc2cc(OCc3c(-c4c(Cl)cccc4Cl)noc3C3CC3)ccc2c1 [Compound 13, 3-((6-((5-cyclopropyl-3-(2,6-dichlorophenyl)isoxazol-4-yl)methoxy)naphthalen-2-yl)oxy)picolinic acid]
< 6.00	6.30 to 7.30	O=C(O)c1ccccc1Oc1ccc2cc(OCc3c(-c4c(Cl)cccc4Cl)noc3C3CC3)ccc2c1 [Compound 14, 2-((6-((5-cyclopropyl-3-(2,6-dichlorophenyl)isoxazol-4-yl)methoxy)naphthalen-2-yl)oxy)benzoic acid]
< 6.00	6.30 to 7.30	O=C(O)c1cccnc1Oc1ccc2cc(OCc3c(-c4c(Cl)cccc4Cl)noc3C3CC3)ccc2c1 [Compound 15, 2-((6-((5-cyclopropyl-3-(2,6-dichlorophenyl)isoxazol-4-yl)methoxy)naphthalen-2-yl)oxy)nicotinic acid]
< 6.00	> 7.30	O=C(O)c1ccncc1Oc1ccc2cc(OCc3c(-c4c(Cl)cccc4Cl)noc3C3CC3)ccc2c1 [Compound 16, 3-((6-((5-cyclopropyl-3-(2,6-dichlorophenyl)isoxazol-4-yl)methoxy)naphthalen-2-yl)oxy)isonicotinic acid]
< 6.00	< 6.30	O=C(O)c1ccc(Oc2ccc3cc(OCc4c(-c5ccccc5OC(F)(F)F)noc4C4CC4)ccc3c2)nc1 [Compound 17]
< 6.00	6.30 to 7.30	O=C(O)c1ccc(Oc2ccc3cc(OCc4c(-c5c(Cl)cc(F)cc5Cl)noc4C4CC4)ccc3c2)nc1 [Compound 18]
< 6.00	< 6.30	COc1cc(Cl)c(-c2noc(C3CC3)c2COc2ccc3cc(Oc4ccc(C(=O)O)cn4)ccc3c2)c(Cl)c1 [Compound 19, 6-((6-((5-cyclopropyl-3-(2,6-dichloro-4-methoxyphenyl)isoxazol-4-yl)methoxy)naphthalen-2-yl)oxy)nicotinic acid]
6.00 to 6.30	6.30 to 7.30	O=C(O)c1ccc(Oc2ccc3cc(OCc4c(-c5c(Cl)cccc5Cl)noc4C4CC4)ccc3c2F)nc1 [Compound 20, 6-((6-((5-cyclopropyl-3-(2,6-dichlorophenyl)isoxazol-4-yl)methoxy)-1-fluoronaphthalen-2-yl)oxy)nicotinic acid]
< 6.00	< 6.30	O=C(O)c1cccc(Oc2cccc3cc(OCc4c(-c5c(Cl)cccc5Cl)noc4C4CC4)ccc23)n1 [Compound 23, 6-((6-((5-cyclopropyl-3-(2,6-dichlorophenyl)isoxazol-4-yl)methoxy)naphthalen-1-yl)oxy)picolinic acid]
< 6.00	6.30 to 7.30	O=C(O)c1ncccc1Oc1cccc2cc(OCc3c(-c4c(Cl)cccc4Cl)noc3C3CC3)ccc12 [Compound 25, 3-((6-((5-cyclopropyl-3-(2,6-dichlorophenyl)isoxazol-4-yl)methoxy)naphthalen-1-yl)oxy)picolinic acid]
6.00 to 6.30	6.30 to 7.30	O=C(O)c1ccc(Oc2ccc3c(Cl)c(OCc4c(-c5c(Cl)cccc5Cl)noc4C4CC4)ccc3c2)nc1 [Compound 29, 6-((5-chloro-6-((5-cyclopropyl-3-(2,6-dichlorophenyl)-isoxazol-4-yl)methoxy)naphthalen-2-yl)oxy)nicotinic acid]
> 6.70	> 7.30	O=C(O)c1ccc(Oc2c(F)ccc3cc(OCc4c(-c5c(Cl)cccc5Cl)noc4C4CC4)ccc23)nc1 [Compound 30, 6-((6-((5-cyclopropyl-3-(2,6-dichlorophenyl)isoxazol-4-yl)methoxy)-2-fluoronaphthalen-1-yl)oxy)nicotinic acid]
> 6.70	6.30 to 7.30	O=C(O)c1ccc(Oc2ccc3cc(OCc4c(-c5c(Cl)cccc5Cl)noc4C4CC4)ccc3c2)nc1 [Compound 33]
> 6.70	> 7.30	O=C(O)c1cccnc1Oc1cccc2cc(OCc3c(-c4c(Cl)cccc4Cl)noc3C3CC3)ccc12 [Compound 35, 2-((6((5-cyclopropyl-3-(2,6-dichlorophenyl)isoxazol-4-yl)methoxy)naphthalen-1-yl)oxy)nicotinic acid]
< 6.00	6.30 to 7.30	O=C(O)c1ccc(Oc2ccc3c(OCc4c(-c5c(Cl)cccc5Cl)noc4C4CC4)cccc3c2)nc1 [Compound 36, 6-((5-((5-cyclopropyl-3-(2,6-dichlorophenyl)isoxazol-4-yl)methoxy)naphthalen-2-yl)oxy)nicotinic acid]
